# Reference: patent US8946226B2, “Use of CDK inhibitor for the treatment of glioma” (Nerviano Medical Sciences S.r.l., priority 2008, dated 2015)
# pIC50: −log10 of the molar value.
# Experiments:
# [1] = test system: all the tested glioma cells; experiment: Acridine orange staining to evaluate autophagy, summary over cell lines; format: cell-based
# Procedure: (§1) SF-268, SF-295, SF-539 and U251 cell lines were cultured in RPMI 1640 added with 10% FCS and 2 mM glutamine and U-87MG cell line was cultured in EMEM added with 10% FCS, […] and 1% NEAA. For all the experiments cells were seeded at the density of 1×10^4/cm^2, the day after treatment with the compound for the prescribed duration and then collected at the reported times.
# (§2) During the last 15 minutes of incubation, acridine orange (1 μg/ml) was added to the cells that were then collected, washed with PBS and analyzed by FACS for their fluorescence emission. Acridine orange moves freely to cross biological membranes but, when in the cytoplasm and nucleolus, fluoresces bright green and dim red; in the acidic vacuoles generated by autophagy appears bright red.
# U251 cells [2] = experiment: Mode of action by Western blot analysis; format: cell-based, human; settings: U251 cells treated for 24 hours, 1 and 3 μM, FIG. 1
# Procedure: (§3) Treated cells were lysed by adding SDS sample buffer (0.125M Tris-HCl pH6.8, 5% SDS). Samples were heated to 95° C. for 5 minutes and then sonicated using an Ultrasonic 2000 ARTEK. Lysed cells were centrifuged at 13,000 RPM for 10 minutes. Protein quantification was determined using BCA buffer (Pierce) and a BSA standard curve. 20 μg protein extract per well were loaded and separated by SDS-PAGE gel 7.5-10% (PAGE-PLUS 40% concentrate AMRESCO). The gel was blotted onto nitrocellulose filters (Hybond Amersham) in a buffer containing 25 mM Tris HCl pH 8.3, 192 mM Glycine and 20% methanol. The filters were saturated in 5% low-fat milk in TBS containing 0.1% Tween 20 (TBS-T) for 2 hours at room temperature and than incubated overnight at 4° C. with the primary monoclonal followed by washes in TBS-T and incubation using a secondary anti mouse antibody. The bands were visualized using the “Super Signal West Pico” Pierce.
# SF539 [3] = experiment: Inhibition of cell proliferation (cellular ATP monitoring); format: cell-based; settings: Homo sapiens, SF-539; SF539, 72 hours
# Procedure: as §1
# (§4) Cells were washed and counted 72 hours after the treatment. Cell proliferation was determined by a cellular adenosine triphosphate monitoring system. Cell proliferation was compared to control cells. The concentration inhibiting cell proliferation by 50% (IC50) was calculated.
# U251 [4] = experiment: as above; format: cell-based; settings: Homo sapiens, U-251; U251, 72 hours
# Procedure: as §1, §4
# U87MG [5] = experiment: as above; format: cell-based; settings: Homo sapiens, U-87 MG, 72 hours
# Procedure: as §1, §4
# SF295 [6] = experiment: as above; format: cell-based; settings: Homo sapiens, SF-295; SF295, 72 hours
# Procedure: as §1, §4
# SF268 [7] = experiment: as above; format: cell-based; settings: Homo sapiens, SF-268; SF268, 72 hours
# Procedure: as §1, §4
# U251 [8] = experiment: Acridine orange staining to evaluate autophagy (FACS); format: cell-based, human; settings: U251, 3 μM
# Procedure: as §1, §2
# U251 human glioma cells = format: in vivo
# Procedure: Balb, Nu/Nu male mice, from Harlan (Italy), were maintained in cages with paper filter cover, food and bedding sterilized and water acidified. 2.5×10^6 U251 human glioma cells (from the American Type Culture Collection) were injected subcutaneously in athymic mice. […] Tumor growth and body weight were measured every 3 days. Tumor growth was assessed by caliper. The two diameters were recorded and the tumor weight was calculated according the following formula: length (mm)×width^2/2. Toxicity was evaluated on the basis of body weight reduction.
# [9] = test system: all the tested glioma cells; experiment: Inhibition of cell proliferation, summary over cell lines; format: cell-based; settings: 72 hours, read-out: IC50 (inhibit proliferation), range over cell lines
# Procedure: as §1, §4
# SF539 [10] = experiment: Acridine orange staining to evaluate autophagy (FACS); format: cell-based; settings: SF539, 6 μM
# Procedure: as §1, §2
# U87MG [11] = experiment: as above; format: cell-based; settings: 3 μM
# Procedure: as §1, §2
# SF295 [12] = experiment: as above; format: cell-based; settings: SF295, 3 μM
# Procedure: as §1, §2
# SF268 [13] = experiment: as above; format: cell-based; settings: SF268, 3 μM
# Procedure: as §1, §2
# [14] = Levels of compound in brain and plasma by LC/MS/MS; format: in vivo, Han Wistar rats; settings: rat; for Brain levels: average
# Procedure: The animals were sacrificed on day 6 at 2 and 6 hours after dosing. Brain and plasma were taken at the sacrifice time. Blood was put in heparinised plastic tubes, kept in ice-water bath, and then centrifuged (10 minutes, 1200 g at 4° C.). Brain and plasma samples were stored in a freezer at −80° C. until analysis. The levels of compound of formula (I) were analysed by LC/MS/MS.
# SF-539 cells = experiment: Mode of action by Western blot analysis; format: cell-based; settings: SF-539 cells treated for 6 hours, 3 μM, FIG. 2
# Procedure: as §3
# all glioma cell lines = experiment: Mode of action by Western blot analysis; format: cell-based; settings: independently from the status of Rb pathway
# Procedure: as §3
# U251 [15] = experiment: Analysis of BrdU incorporation (FACS); format: cell-based, human; settings: U251, 24 hour-treatment
# Procedure: as §1
# (§5) BrdU (5-bromo-2′ deoxyuridine) was added to the cell culture at the final concentration of 30 μM for the last hour of a 24 hour-treatment. Cells were washed with PBS, fixed in 70% ethanol and stored at −20° C. At the moment of the analysis cells were centrifuged, washed with 1% FCS in PBS and DNA denaturated with HCl 2N for 20 minutes. After a wash in Na2B4O7 0.1M pH 8.5, cells were incubated with a solution of 0.5% Tween20 in PBS+1% FCS for 15 minutes and then centrifuged. The pellets were resuspended in 150 μl of a 1:10 diluted unconjugated anti-BrdU monoclonal antibody (Becton Dickinson) and incubated for 1 hour at room temperature. After a wash in PBS, the incubation with 0.5% Tween20 was repeated; then the secondary antibody was added (1:50 diluted FITC-conjugated goat anti mouse immunoglobulin (Jackson Lab.)). After one hour at room temperature the cells were rinsed again, counterstained with propidium iodide (2 μg/ml+12.5 μg/ml DNAse-free RNAse) overnight, then analyzed by FACS.
# [16] = Radioactivity distribution in brain by autoradioluminography, plasma by LSC; format: in vivo, Sprague Dawley rats; settings: 14C-labelled, single oral 20 mg/kg as maleate salt, rat
# Procedure: Animals were sacrificed 2, 6 and 24 hours after administration (2 animals at each selected time) and the radioactivity distribution of compound-related material was evaluated in intact brain, after excision. The autoradioluminography method was used to evaluate the quantitative radioactivity distribution in the brain.
# The radioactivity distribution was also evaluated in blood and plasma collected from the animals after sacrifice. The radioactivity levels in blood and plasma were determined by Liquid Scintillation Counting (LSC).
# U251 cells [17] = experiment: Efficacy on intracranially implanted glioma tumor model; format: in vivo, Athymic male nude mice; settings: 40 mg/kg bid OS, FIG. 3
# Procedure: Animals that underwent surgical procedures were anesthetized following one of the above mentioned protocols, i.e. Ketamin, 80-100 mg/kg i.p.+Xilazin: 10 mg/kg i.p.; Isofluorane: 1.5-2%. Athymic male nude mice, aged 6-8 weeks were anesthetized, placed under the stereotaxic apparatus and gently fixed with ear bars and into the head holder. Skin of the head was cut longitudinally (parallel to ears) and skull of the mouse discovered. With the X and Y axis controller of the apparatus, bregma (interception between median sagittal and anterior coronal sutures to perform injection into the cerebral nuclei) and lambda (interception between median sagittal suture and posterior coronal suture to perform injection into the cerebellum) were identified as point 0. The following coordinates were set in the apparatus and the point of injection identified. With a microdrill a small hole was done in the desired point. Cells were aspirated with the Hamilton syringe (usually […]) just prior injection (a short mix of cells before aspiration was performed to avoid precipitation of cells). By pointing to the hole, Z axis was fixed to 0 and syringe gently inserted into the brain until reaching the right coordinate (−3.0 mm depth). U251 cells were injected at the speed of 1 μl per minute. […] After the end of the surgery mice were monitored for recovery until complete wakening.
# SF539 [18] = experiment: Analysis of BrdU incorporation (FACS); format: cell-based; settings: SF539, 24 hour-treatment
# Procedure: as §1, §5
# U87MG [19] = experiment: Analysis of BrdU incorporation (FACS); format: cell-based; settings: 24 hour-treatment
# Procedure: as §1, §5
# SF295 [20] = experiment: Analysis of BrdU incorporation (FACS); format: cell-based; settings: SF295, 24 hour-treatment
# Procedure: as §1, §5
# SF268 [21] = experiment: Analysis of BrdU incorporation (FACS); format: cell-based; settings: SF268, 24 hour-treatment
# Procedure: as §1, §5
structure (smiles),measurement,setting,value
"CNC(=O)c1nn(C)c2c1C(C)(C)Cc1cnc(Nc3ccc(N4CCN(C)CC4)cc3)nc1-2 [compound of formula (I), 8-[4-(4-methyl-piperazin-1-yl)-phenylamino]-1,4,4-trimethyl-4,5-dihydro-1H-pyrazolo[4,3-h]quinazoline-3-carboxylic acid methylamide]","induce autophagy, % of the cells, range over cell lines",[1],36-70%
same,Rb phosphorylation,U251 cells [2],strong inhibition
same,cdc6 expression,U251 cells [2],strong inhibition
same,cyclin A expression,U251 cells [2],strong inhibition
same,cyclin B1 expression,U251 cells [2],strong inhibition
same,pIC50,SF539 [3],5.85
same,pIC50,U251 [4],5.55
same,pIC50,U87MG [5],5.80
same,pIC50,SF295 [6],5.27
same,pIC50,SF268 [7],5.60
same,Autophagy %,U251 [8],58 (3 μM) %
same,Max tumor growth inhibition (%),"U251 human glioma cells; U251 subcutaneous xenograft, oral 40 mg/kg BID for 10 consecutive days",80%
same,Toxicity,"U251 human glioma cells; male, Balb Nu/Nu, mouse, in vivo, po, 40 mg/kg, 10 days",0/8
same,pIC50,[9],5.27 to 5.85
same,Autophagy %,SF539 [10],35 (6 μM) %
same,Autophagy %,U87MG [11],50 (3 μM) %
same,Autophagy %,SF295 [12],68 (3 μM) %
same,Autophagy %,SF268 [13],70 (3 μM) %
same,Kp,"[14]; Han Wistar, brain/plasma, oral 60 mg/kg for 6 days, assuming a density equal to 1, read-out: brain levels times higher than plasma levels",6.1 to 9.6
same,concentration at 2 h,"[14]; Han Wistar, plasma, oral 60 mg/kg for 6 consecutive days, day 6, 2 hours post-dosing",9.8 µM
same,concentration at 6 h,"[14]; Han Wistar, plasma, oral 60 mg/kg for 6 consecutive days, day 6, 6 hours post-dosing",8.4 µM
same,Brain levels,"[14]; oral 60 mg/kg for 6 consecutive days, day 6, 2 hours post-dosing",88.9 nmoles/gr of tissue
same,Brain levels,"[14]; oral 60 mg/kg for 6 consecutive days, day 6, 6 hours post-dosing",69.4 nmoles/gr of tissue
same,phosphorylation of TRKA receptor,SF-539 cells,Inhibition
same,"phosphorylation of downstream proteins, both in the MAPK and in AKT pathway",SF-539 cells,Inhibition
same,cell cycle related markers,all glioma cell lines,decrease
same,% BrdU inhib,U251 [15],74%
same,Brain (total radioactivity),[16]; 2 h,4.6 μg eq/g
same,Cerebellum (total radioactivity),[16]; 2 h,4.4 μg eq/g
same,Plasma (total radioactivity),[16]; 2 h,1.43 μg eq/g
same,Brain (total radioactivity),[16]; 6 h,1.4 μg eq/g
same,Cerebellum (total radioactivity),[16]; 6 h,1.5 μg eq/g
same,Plasma (total radioactivity),[16]; 6 h,0.89 μg eq/g
same,Brain (total radioactivity),[16]; 24 h,0.4 μg eq/g
same,Cerebellum (total radioactivity),[16]; 24 h,0.4 μg eq/g
same,Plasma (total radioactivity),[16]; 24 h,0.14 μg eq/g
same,increase in the survival time in comparison to vehicle-treated control mice,U251 cells [17],30%
same,% BrdU inhib,SF539 [18],39%
same,% BrdU inhib,U87MG [19],92%
same,% BrdU inhib,SF295 [20],74%
same,% BrdU inhib,SF268 [21],78%
